From paper PMC4279406, “Simultaneous targeting of PI3Kδ and a PI3Kδ-dependent MEK1/2-Erk1/2 pathway for therapy in pediatric B-cell acute lymphoblastic leukemia” (Oncotarget, 2014) come the findings set out here.

The structures appear in SMILES notation. pIC50: −log10 of the molar value. Like-named read-outs stand apart in the source and are kept apart here.

In one assay the test system is Rh30-Myr-p110γ cells. Kind of assay: Akt phosphorylation in isogenic Rh30-Myr-p110 cells (Western blot). The note with it: Homo sapiens, serum-free 12 h, compound 1 h, band intensity, mean of three experiments. In kind it is cell-based. The source says:
To assess the selectivity of X-370 in the context of an isogenic cellular background, we generated a panel of Rh30 human rhabdomyosarcoma cell lines each of which stably expresses a single myristoylated (Myr)-epitope tagged p110 human class I PI3K catalytic subunit, termed as Rh30-Myr-p110α, Rh30-Myr-p110β, Rh30-Myr-p110γ or Rh30-Myr-p110δ. In these cells, endogenous PI3K is not activated under serum-free culture conditions, whereas the ectopically expressed p110 isoforms are membrane-anchored and constitutively active due to myristoylation at N-terminal. Utilizing this cell panel, isoform-specific PI3K activity can be determined for any given inhibitor[25]. These cells were treated with X-370 and phosphorylated Akt was detected as the readout of PI3K activity. X-370 inhibited phosphorylation of Akt at both Thr308 and Ser473 in a dose-dependent manner in four tested cell lines (Figure 2A). […] Similar property was also observed in CAL-101 (Figure S2).
Cell lysates were probed with indicated antibodies. The IC50 values were calculated based on relative band intensity measured with ImageQuant™ TL (GE Healthcare Life Sciences, Piscataway, NJ) (B). Data shown are mean values from three independent experiments. (C, D, E, F) X-370 blocked stimuli-triggered PI3Kδ activation. MEF cells and THP-1 were starved in serum-free medium for 12 h or 4 h respectively and X-370 were added for an additional 1 h treatment following stimulation of IGF-1 at 100 ng/ml for MEF cells (C), LPA at 10 μM for MEF cells (D), MCP-1 at 100ng/ml for THP-1 (E) and M-CSF at 50 ng/ml for THP-1 (F). Similar results were derived from 3 independent experiments. TEXT PRINTED IN THE PICTURE: (B) X-370: IC50 (μM) in Rh30-Myr-p110s, Akt pT308, PI3Kα: 0.68; IC50 (μM) in Rh30-Myr-p110s, Akt pT308, PI3Kβ: 0.4; IC50 (μM) in Rh30-Myr-p110s, Akt pT308, PI3Kγ: 0.46; IC50 (μM) in Rh30-Myr-p110s, Akt pT308, PI3Kδ: 0.032; IC50 (μM) in Rh30-Myr-p110s, Akt pS473, PI3Kα: 0.53; IC50 (μM) in Rh30-Myr-p110s, Akt pS473, PI3Kβ: 0.29; IC50 (μM) in Rh30-Myr-p110s, Akt pS473, PI3Kγ: 0.23; IC50 (μM) in Rh30-Myr-p110s, Akt pS473, PI3Kδ: 0.02 DOUBTS OF THE COPYIST ABOUT THIS PICTURE: Panel B prints no substance label in the table itself; the label X-370 is taken from the other panels of the same picture, where it is the only substance printed. […]
Cells were treated as indicated conditions and then subjected to lysate to perform standard Western blot as described previously1. Briefly, whole-cell lysates and SDS-loading buffer diluted cell fractions were analyzed on SDS-PAGE gels. Transfer to nitrocellulose membranes, nonfat milk blocking, probing with indicated primary antibodies and the corresponding HRP-conjugated second antibodies.
Chemiluminescence were performed and captured using ImageQuant LAS 4000 (GE healthcare Life Sciences, Piscataway, NJ, USA) and band intensity was measure both with ImageQuant™ TL (GE Healthcare Life Sciences) 2. […]
(also on this page, place not known: PI3Kδ -dependent MEK1/2 - B -cell previously 1. whole -cell SDS -loading SDS -PAGE HRP -conjugated (G E A B Val828 Trp760 Thr750 Met752 Tyr813 affinity pocket specificity pocket hinge Glu826 CAL-101 X-370) […]
(1 picture or pasted object on this page, not shown here)
(In western blotting, separated proteins are transferred to a membrane and probed.)

A further assay addresses T1, PI3Kγ (Homo sapiens, UniProt P48736).
T1 construct: purchased Millipore (Kinase Profiler Services, United Kingdom)
Kind of assay: Kinase Profiler lipid kinase IC50. The class given is biochemical. Conditions: ATP at Km of the isoform; 10-point half-log dilution from 1000 nM. As to the method: (§1) Figure 1 Structure of X-370 and its inhibitory activity against lipid kinases (A) Chemical structure of X-370. (B) X-370 docked to the crystal structure of PI3Kδ. The model was generated based on the co-crystal structure of PI3Kδ and ZSTK474 (PDB ID: 2WXL). (C) IC50 of X-370 against PI3Kδ increased along with ATP concentration. […] Data was obtained from Kinase Profiler Services (Millipore, United Kingdom). Briefly, X-370 was solved in DMSO at a concentration of 10 mM, 10-point kinase inhibitory activity was measured over concentrations in a half-log dilution series started at 1000 nM with ATP at a concentration consistent with Km of each isoform of class I PI3K and IC50s were calculated. Relative kinase activity in the presence of 10 μM X-370 compared to DMSO control was measured for the rest of lipid kinases. TEXT PRINTED IN THE PICTURE: (D) X-370: IC50 (nM): 7 (Isoform: PI3Kδ); IC50 (nM): 433 (Isoform: PI3Kα); IC50 (nM): >1,000 (Isoform: PI3Kγ); IC50 (nM): >1,000 (Isoform: PI3Kβ); Relative Activity (%) X-370 (10 μM): 55 (Lipid Kinases: PI3KC2α); Relative Activity (%) X-370 (10 μM): 63 (Lipid Kinases: PI3KC2γ); Relative Activity (%) X-370 (10 μM): 105 (Lipid Kinases: PIP4K2α); Relative Activity (%) X-370 (10 μM): 100 (Lipid Kinases: PIP5K1α); Relative Activity (%) X-370 (10 μM): 103 (Lipid Kinases: PIP5K1γ) DOUBTS OF THE COPYIST ABOUT THIS PICTURE: Panel D, left table (Isoform / IC50): no substance label is printed in this table; assigned to X-370, the only label printed in the panel (head of the right table)
(§2) In vitro kinase profile assays were analyzed by the Kinase Profiler Service (Millipore, United Kingdom) following its guidelines. A GST-tagged human p110δ and regulatory full-length p85 were co-expressed in insect cell Sf9. Recombinant protein was extracted by affinity purification. The PI3K kinase activity was determined in the increasing concentration of ATP and X-370 with PI3-Kinase HTRF™ Assay kit (Millipore) as described previously.

The target in the next assay is T2, PI3Kα (Homo sapiens, UniProt P42336).
T2 construct: purchased Millipore (Kinase Profiler Services, United Kingdom)
T2 sequence (P42336 whole entry): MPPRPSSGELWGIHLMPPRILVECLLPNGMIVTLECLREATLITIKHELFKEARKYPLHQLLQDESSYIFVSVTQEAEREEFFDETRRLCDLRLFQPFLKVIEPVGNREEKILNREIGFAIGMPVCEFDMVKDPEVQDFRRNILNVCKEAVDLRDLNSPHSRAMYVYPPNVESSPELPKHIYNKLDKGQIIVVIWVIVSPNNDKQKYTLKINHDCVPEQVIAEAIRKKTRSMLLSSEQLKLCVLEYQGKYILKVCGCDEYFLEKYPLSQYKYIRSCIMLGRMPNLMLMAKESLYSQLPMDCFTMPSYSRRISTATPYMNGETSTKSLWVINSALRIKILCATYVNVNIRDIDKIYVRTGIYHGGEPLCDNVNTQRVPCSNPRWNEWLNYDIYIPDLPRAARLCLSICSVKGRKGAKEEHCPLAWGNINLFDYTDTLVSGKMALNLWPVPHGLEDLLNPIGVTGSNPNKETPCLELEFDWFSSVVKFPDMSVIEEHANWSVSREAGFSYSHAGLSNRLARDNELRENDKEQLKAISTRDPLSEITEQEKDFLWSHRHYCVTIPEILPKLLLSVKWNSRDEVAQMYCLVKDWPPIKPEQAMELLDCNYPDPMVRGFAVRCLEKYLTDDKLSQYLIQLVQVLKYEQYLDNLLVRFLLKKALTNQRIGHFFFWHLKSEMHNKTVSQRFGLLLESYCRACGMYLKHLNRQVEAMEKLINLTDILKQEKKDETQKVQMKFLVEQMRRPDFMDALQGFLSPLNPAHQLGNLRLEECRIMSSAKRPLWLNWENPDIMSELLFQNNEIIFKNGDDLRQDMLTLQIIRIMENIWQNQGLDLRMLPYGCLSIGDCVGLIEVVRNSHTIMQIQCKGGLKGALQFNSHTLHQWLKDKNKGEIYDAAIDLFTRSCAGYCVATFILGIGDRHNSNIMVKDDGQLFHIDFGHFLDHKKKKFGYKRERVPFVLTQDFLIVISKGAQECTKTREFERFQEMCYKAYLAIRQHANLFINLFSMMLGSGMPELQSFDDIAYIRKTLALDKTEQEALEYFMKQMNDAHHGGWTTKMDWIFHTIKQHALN
T2 sequence (P27986 whole entry partner): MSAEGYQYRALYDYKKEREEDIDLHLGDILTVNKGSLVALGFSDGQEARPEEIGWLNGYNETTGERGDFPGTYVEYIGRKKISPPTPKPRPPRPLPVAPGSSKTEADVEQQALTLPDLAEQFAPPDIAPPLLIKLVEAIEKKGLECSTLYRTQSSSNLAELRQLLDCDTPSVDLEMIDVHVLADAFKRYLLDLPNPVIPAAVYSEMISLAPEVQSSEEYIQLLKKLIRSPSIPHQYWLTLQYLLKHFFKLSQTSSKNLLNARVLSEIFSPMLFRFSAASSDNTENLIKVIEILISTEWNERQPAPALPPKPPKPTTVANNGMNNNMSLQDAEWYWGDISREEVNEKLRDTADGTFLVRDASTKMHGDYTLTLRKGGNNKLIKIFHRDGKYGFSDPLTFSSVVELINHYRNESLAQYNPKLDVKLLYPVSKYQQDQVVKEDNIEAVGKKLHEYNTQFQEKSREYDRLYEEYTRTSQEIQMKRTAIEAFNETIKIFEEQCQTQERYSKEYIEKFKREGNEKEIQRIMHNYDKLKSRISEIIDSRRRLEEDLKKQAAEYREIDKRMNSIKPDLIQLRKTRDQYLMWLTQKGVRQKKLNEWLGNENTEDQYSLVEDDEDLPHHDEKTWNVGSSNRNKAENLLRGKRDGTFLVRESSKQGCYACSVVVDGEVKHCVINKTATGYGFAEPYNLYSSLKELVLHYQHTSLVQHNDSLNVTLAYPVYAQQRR
Put plainly: Kinase Profiler lipid kinase IC50. The note with it: ATP at Km of the isoform; 10-point half-log dilution from 1000 nM. The class given is biochemical. On the procedure:
as §1, §2

For the next assay, the target named is T3, PI3Kβ (Homo sapiens, UniProt P42338).
T3 construct: purchased Millipore (Kinase Profiler Services, United Kingdom)
T3 sequence (P42338 whole entry): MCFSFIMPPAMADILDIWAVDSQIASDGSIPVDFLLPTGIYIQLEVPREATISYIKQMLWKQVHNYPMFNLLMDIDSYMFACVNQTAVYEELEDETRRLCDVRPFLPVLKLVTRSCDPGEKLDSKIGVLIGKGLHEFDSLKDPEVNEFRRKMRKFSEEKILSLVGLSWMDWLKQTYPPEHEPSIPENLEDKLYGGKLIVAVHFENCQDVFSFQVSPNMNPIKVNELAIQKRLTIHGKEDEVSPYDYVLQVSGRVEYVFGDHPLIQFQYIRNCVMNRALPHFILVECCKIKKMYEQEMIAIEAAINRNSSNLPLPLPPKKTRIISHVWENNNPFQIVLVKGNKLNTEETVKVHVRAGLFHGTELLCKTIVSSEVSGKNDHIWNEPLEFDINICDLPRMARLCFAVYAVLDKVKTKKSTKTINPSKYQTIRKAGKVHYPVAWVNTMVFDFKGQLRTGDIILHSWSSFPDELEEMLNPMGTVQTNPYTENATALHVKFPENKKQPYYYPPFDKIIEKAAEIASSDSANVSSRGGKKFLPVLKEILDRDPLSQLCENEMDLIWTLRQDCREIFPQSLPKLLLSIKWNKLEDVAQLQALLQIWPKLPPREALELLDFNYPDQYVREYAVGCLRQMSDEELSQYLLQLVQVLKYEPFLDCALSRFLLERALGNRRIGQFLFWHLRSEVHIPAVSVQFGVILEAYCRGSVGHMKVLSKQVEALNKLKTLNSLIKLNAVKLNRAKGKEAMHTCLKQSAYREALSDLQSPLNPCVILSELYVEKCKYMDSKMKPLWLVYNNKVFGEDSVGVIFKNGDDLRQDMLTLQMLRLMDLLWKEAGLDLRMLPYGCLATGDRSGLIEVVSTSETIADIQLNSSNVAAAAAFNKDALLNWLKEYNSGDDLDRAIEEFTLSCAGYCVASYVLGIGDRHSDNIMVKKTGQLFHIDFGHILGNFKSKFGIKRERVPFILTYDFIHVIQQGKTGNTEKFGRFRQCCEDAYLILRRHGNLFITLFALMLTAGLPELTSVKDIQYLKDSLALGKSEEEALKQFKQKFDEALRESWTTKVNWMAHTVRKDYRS
T3 sequence (P27986 whole entry partner): as the sequence (P27986 whole entry partner) above
Kind of assay: Kinase Profiler lipid kinase IC50. In kind it is biochemical. Conditions: ATP at Km of the isoform; 10-point half-log dilution from 1000 nM. As to the method:
as §1, §2

T1 sequence (P48736 whole entry): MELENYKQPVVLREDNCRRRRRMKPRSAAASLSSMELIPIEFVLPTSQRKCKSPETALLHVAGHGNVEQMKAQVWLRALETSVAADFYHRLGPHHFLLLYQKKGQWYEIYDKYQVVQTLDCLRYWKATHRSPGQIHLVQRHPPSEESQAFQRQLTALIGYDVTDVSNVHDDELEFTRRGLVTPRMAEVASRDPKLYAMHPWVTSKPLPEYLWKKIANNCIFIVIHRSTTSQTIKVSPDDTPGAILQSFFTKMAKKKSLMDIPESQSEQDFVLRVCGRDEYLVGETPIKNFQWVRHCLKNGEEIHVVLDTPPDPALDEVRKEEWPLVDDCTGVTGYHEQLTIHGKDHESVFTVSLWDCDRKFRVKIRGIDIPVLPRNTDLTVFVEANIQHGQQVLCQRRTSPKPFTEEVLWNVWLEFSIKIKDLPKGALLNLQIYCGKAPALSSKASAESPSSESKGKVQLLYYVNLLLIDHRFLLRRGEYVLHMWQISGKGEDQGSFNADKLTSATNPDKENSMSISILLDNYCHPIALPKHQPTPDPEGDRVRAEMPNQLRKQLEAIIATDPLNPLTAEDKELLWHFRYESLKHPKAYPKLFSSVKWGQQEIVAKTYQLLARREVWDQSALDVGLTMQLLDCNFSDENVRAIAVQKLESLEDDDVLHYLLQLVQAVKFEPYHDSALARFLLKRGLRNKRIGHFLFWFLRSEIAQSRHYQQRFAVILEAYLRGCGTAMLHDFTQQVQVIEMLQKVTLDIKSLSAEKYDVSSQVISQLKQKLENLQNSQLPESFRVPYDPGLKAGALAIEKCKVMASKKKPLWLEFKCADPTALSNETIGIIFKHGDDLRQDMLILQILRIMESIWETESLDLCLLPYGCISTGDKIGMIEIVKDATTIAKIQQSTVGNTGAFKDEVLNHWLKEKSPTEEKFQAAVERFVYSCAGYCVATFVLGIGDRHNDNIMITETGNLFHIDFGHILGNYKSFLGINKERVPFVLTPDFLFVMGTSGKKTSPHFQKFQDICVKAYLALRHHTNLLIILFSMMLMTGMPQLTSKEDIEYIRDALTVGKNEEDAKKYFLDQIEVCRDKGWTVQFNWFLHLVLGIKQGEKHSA

With `O=C(N1CCCC1)N1CCC(n2cnc3c(-n4c(C(F)F)nc5ccccc54)nc(N4CCOCC4)nc32)CC1` [X-370], the IC50 in the assay with Rh30-Myr-p110γ cells (read-out: IC50 (μM) in Rh30-Myr-p110s, Akt pS473, PI3Kγ) is 0.23 µM; with Rh30-Myr-p110γ cells (read-out: IC50 (μM) in Rh30-Myr-p110s, Akt pT308, PI3Kγ), 0.46 µM. For the same compound, the pIC50 on PI3Kγ is less than 6.00; against PI3Kα, 6.36; against PI3Kβ, less than 6.00.

As a reminder, the IC50 is the concentration that gives 50% inhibition. A word on the pIC50: it is −log10 of the IC50, conventionally taken in molar units.
